# Read-outs that look alike come from different tables or passages of the source.
# System: advanced or metastatic gastric cancer patients
# Conditions: for median OS: Experiment No. 1, p=0.07; for OS / response rates: Experiment No. 2; for OS: p=0.04; for response rates: p<0.01
smiles,measurement,setting,value
"CS(=O)(=O)CCNCc1ccc(-c2ccc3ncnc(Nc4ccc(OCc5cccc(F)c5)c(Cl)c4)c3c2)o1 [lapatinib, Lapatinib]",median OS,"A/A genotype of IL-8 T251A polymorphism, blood samples from 40 patients",10 months
same,median OS,first listed of the other 2 genotypes of IL-8 T251A,3 months
same,median OS,second listed of the other 2 genotypes of IL-8 T251A,3 months
same,OS,"IL-8 T251A A/A, blood samples from 42 patients",10 months
same,OS,IL-8 T251A T/A,5 months
same,OS,IL-8 T251A T/T,3 months
same,response rates,patients with A allele of IL-8 T251A,better response rates
same,response rates,patients with T allele of VEGF C936T,better response rates
same,median overall survival (OS),"comparison group to higher HER2 gene expression (lower HER2), p=0.005",3 months
same,median overall survival (OS),"comparison group to lower IL-8 gene expression (higher IL-8), p=0.03",3 months
same,median overall survival (OS),"patients with higher intratumoral HER2 gene expression, p=0.005 vs lower",6 months
same,median overall survival (OS),"patients with lower intratumoral IL-8 gene expression, p=0.03 vs higher",6 months
